biological target: TNF (Homo sapiens, UniProt P01375); assay: TNF-neutralization bioassay: TNF-induced cell death of LM cells (MTT); assay type: cell-based; settings: compound 50 μM, TNF 20 ng/ml, actinomycin D, LM cells, 24 hours
Procedure: First, the addition of recombinant TNF to mouse fibroblast LM cells induces cell death, and thus, by using the same, the TNF-neutralization bioassay was constructed. In other words, LM cells were pretreated with TNF (20 ng/ml) and the compounds synthesized in the above examples at various concentrations (5×10^4 cells/well), and a sensitizer actinomycin D ([…]) was added, and cultured in a CO2 incubator for 24 hours, and then the MTT assay was carried out. At this time, 10 μl of MTT (5 mg/ml stock) was added, reacted for 4 hours, and then dissolved in DMSO to measure the absorbance at 570 nm. First, the TNF cell death inhibition/neutralization action of TNF-target expected compounds at single concentration (50 or 10 μM) was measured. Second, IC50 values were determined by treating with the compounds having an excellent effect at different concentrations. The % inhibition of TNF was calculated using the following formula: % inhibition of TNF=(OD value of a group treated with TNF and compound−OD value of TNF treated group/(OD value of TNF untreated group−OD value of TNF treated group)×100.
IC50 values were statistically analyzed using Prism 6 (GraphPad) (IC50: 50% inhibitory concentration, CC50: 50% cytotoxic concentration).

Sequence of TNF (P01375 77-233 limits assumed): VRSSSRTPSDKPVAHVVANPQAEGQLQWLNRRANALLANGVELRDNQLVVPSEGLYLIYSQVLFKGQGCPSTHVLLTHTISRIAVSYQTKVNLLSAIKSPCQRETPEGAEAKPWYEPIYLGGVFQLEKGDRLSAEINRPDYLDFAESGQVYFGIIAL

Compared with `Cc1cccc(-c2oc3ccccc3c(=O)c2C(=O)O)c1` [Example 19, 2-(3-methylphenyl)-3-carboxy-(4H)-4-benzopyranone], `Cc1cccc(-c2oc3ccc(C)cc3c(=O)c2C(=O)O)c1` [Example 27, 2-(3-methylphenyl)-3-carboxy-6-methyl-(4H)-4-benzopyranone] is higher in inhibition at 50 µM: 48.3% for the first, 65.2% for the second.

Going from `COc1ccc2c(=O)c(C(=O)O)c(-c3cccs3)oc2c1` [Example 13, 2-(2-thiophenyl)-3-carboxy-7-methoxy-(4H)-4-benzopyranone] to `O=C(O)c1c(-c2cccs2)oc2cc(Cl)ccc2c1=O` [Example 34, 2-(2-thiophenyl)-3-carboxy-7-chloro-(4H)-4-benzopyranone], the inhibition at 50 µM falls from 55.9% to 21.7%.

First: O=C(O)c1c(-c2cccs2)oc2ccc(Br)cc2c1=O [Example 36, 2-(2-thiophenyl)-3-carboxy-6-bromo-(4H)-4-benzopyranone]
Second: Cc1ccc2oc(-c3cccs3)c(C(=O)O)c(=O)c2c1 [Example 33, 2-(2-thiophenyl)-3-carboxy-6-methyl-(4H)-4-benzopyranone]
The inhibition at 50 µM of the first is higher: 27% for the first, 20.7% for the second.

Going from `Cc1cccc(-c2oc3cc(C)ccc3c(=O)c2C(=O)O)c1` [Example 26, 2-(3-methylphenyl)-3-carboxy-7-methyl-(4H)-4-benzopyranone] to `Cc1cccc(-c2oc3cc(Cl)ccc3c(=O)c2C(=O)O)c1` [Example 28, 2-(3-methylphenyl)-3-carboxy-7-chloro-(4H)-4-benzopyranone], the inhibition at 50 µM falls from 45.1% to 34.9%.

Compared with `Cc1cccc(-c2oc3ccc(Cl)cc3c(=O)c2C(=O)O)c1` [Example 29, 2-(3-methylphenyl)-3-carboxy-6-chloro-(4H)-4-benzopyranone], `Cc1ccc2c(=O)c(C(=O)O)c(-c3cccc(F)c3)oc2c1` [Example 42, 2-(3-fluorophenyl)-3-carboxy-7-methyl-(4H)-4-benzopyranone] is lower in inhibition at 50 µM: 45.7% for the first, 23% for the second.

Going from `COc1ccc2c(=O)c(C(=O)O)c(-c3ccco3)oc2c1` [Example 3, 2-(2-furanyl)-3-carboxy-7-methoxy-(4H)-4-benzopyranone] to `COc1ccc2oc(-c3ccco3)c(C(=O)O)c(=O)c2c1` [Example 4, 2-(2-furanyl)-3-carboxy-6-methoxy-(4H)-4-benzopyranone], the inhibition at 50 µM falls from 26.3% to 24.6%.

Compared with `Cc1cccc2c(=O)c(C(=O)O)c(-c3ccc(F)c(F)c3)oc12` [Example 64, 2-(3,4-difluorophenyl)-3-carboxy-8-methyl-(4H)-4-benzopyranone], `Cc1cccc2c(=O)c(C(=O)O)c(-c3cc(F)cc(F)c3)oc12` [Example 47, 2-(3,5-difluorophenyl)-3-carboxy-8-methyl-(4H)-4-benzopyranone] is lower in inhibition at 50 µM: 47.2% for the first, 21.4% for the second.

First: Cc1ccc2c(=O)c(C(=O)O)c(-c3ccco3)oc2c1 [Example 21, 2-(2-furanyl)-3-carboxy-7-methyl-(4H)-4-benzopyranone]
Second: Cc1cccc2c(=O)c(C(=O)O)c(-c3ccco3)oc12 [Example 20, 2-(2-furanyl)-3-carboxy-8-methyl-(4H)-4-benzopyranone]
The inhibition at 50 µM of the first is lower: 55.2% for the first, 59% for the second.

Going from `Cc1ccc2oc(-c3cccc(F)c3F)c(C(=O)O)c(=O)c2c1` [Example 54, 2-(2,3-difluorophenyl)-3-carboxy-6-methyl-(4H)-4-benzopyranone] to `O=C(O)c1c(-c2ccccc2Cl)oc2ccccc2c1=O` [Example 11, 2-(2-chlorophenyl)-3-carboxy-(4H)-4-benzopyranone], the inhibition at 50 µM rises from 26.5% to 60.6%.

For `COc1ccc(-c2oc3ccccc3c(=O)c2C(=O)O)cc1OC` [Example 8, 2-(3,4-dimethoxyphenyl)-3-carboxy-(4H)-4-benzopyranone], the inhibition at 50 µM was 24.3%.

tested on: not given; assay: not given; settings: not given

First: Cc1cccc(-c2oc3ccccc3c(=O)c2C(=O)O)c1 [Example 19, 2-(3-methylphenyl)-3-carboxy-(4H)-4-benzopyranone]
Second: Cc1cccc(-c2oc3ccc(C)cc3c(=O)c2C(=O)O)c1 [Example 27, 2-(3-methylphenyl)-3-carboxy-6-methyl-(4H)-4-benzopyranone]
The melting point of the first is lower: 162 to 164 °C for the first, 192 to 195 °C for the second.

First: COc1ccc2c(=O)c(C(=O)O)c(-c3cccs3)oc2c1 [Example 13, 2-(2-thiophenyl)-3-carboxy-7-methoxy-(4H)-4-benzopyranone]
Second: O=C(O)c1c(-c2cccs2)oc2cc(Cl)ccc2c1=O [Example 34, 2-(2-thiophenyl)-3-carboxy-7-chloro-(4H)-4-benzopyranone]
The melting point of the first is lower: 205 to 207 °C for the first, 232 to 233 °C for the second.

First: O=C(O)c1c(-c2cccs2)oc2ccc(Br)cc2c1=O [Example 36, 2-(2-thiophenyl)-3-carboxy-6-bromo-(4H)-4-benzopyranone]
Second: Cc1ccc2oc(-c3cccs3)c(C(=O)O)c(=O)c2c1 [Example 33, 2-(2-thiophenyl)-3-carboxy-6-methyl-(4H)-4-benzopyranone]
The melting point of the first is higher: 210 to 212 °C for the first, 153 to 155 °C for the second.

First: Cc1cccc(-c2oc3cc(C)ccc3c(=O)c2C(=O)O)c1 [Example 26, 2-(3-methylphenyl)-3-carboxy-7-methyl-(4H)-4-benzopyranone]
Second: Cc1cccc(-c2oc3cc(Cl)ccc3c(=O)c2C(=O)O)c1 [Example 28, 2-(3-methylphenyl)-3-carboxy-7-chloro-(4H)-4-benzopyranone]
The melting point of the first is lower: 152 to 155 °C for the first, 179 to 181 °C for the second.

Compared with `Cc1cccc(-c2oc3ccc(Cl)cc3c(=O)c2C(=O)O)c1` [Example 29, 2-(3-methylphenyl)-3-carboxy-6-chloro-(4H)-4-benzopyranone], `Cc1ccc2c(=O)c(C(=O)O)c(-c3cccc(F)c3)oc2c1` [Example 42, 2-(3-fluorophenyl)-3-carboxy-7-methyl-(4H)-4-benzopyranone] is lower in melting point: 218 to 220 °C for the first, 178 to 181 °C for the second.

First: COc1ccc2c(=O)c(C(=O)O)c(-c3ccco3)oc2c1 [Example 3, 2-(2-furanyl)-3-carboxy-7-methoxy-(4H)-4-benzopyranone]
Second: COc1ccc2oc(-c3ccco3)c(C(=O)O)c(=O)c2c1 [Example 4, 2-(2-furanyl)-3-carboxy-6-methoxy-(4H)-4-benzopyranone]
The melting point of the first is higher: 217 to 219 °C for the first, 205 to 207 °C for the second.

First: Cc1cccc2c(=O)c(C(=O)O)c(-c3ccc(F)c(F)c3)oc12 [Example 64, 2-(3,4-difluorophenyl)-3-carboxy-8-methyl-(4H)-4-benzopyranone]
Second: Cc1cccc2c(=O)c(C(=O)O)c(-c3cc(F)cc(F)c3)oc12 [Example 47, 2-(3,5-difluorophenyl)-3-carboxy-8-methyl-(4H)-4-benzopyranone]
The melting point of the first is lower: 203 to 204 °C for the first, 243 to 244 °C for the second.

First: Cc1ccc2c(=O)c(C(=O)O)c(-c3ccco3)oc2c1 [Example 21, 2-(2-furanyl)-3-carboxy-7-methyl-(4H)-4-benzopyranone]
Second: Cc1cccc2c(=O)c(C(=O)O)c(-c3ccco3)oc12 [Example 20, 2-(2-furanyl)-3-carboxy-8-methyl-(4H)-4-benzopyranone]
The melting point of the first is lower: 217 to 218 °C for the first, 227 to 228 °C for the second.

Compared with `Cc1ccc2oc(-c3cccc(F)c3F)c(C(=O)O)c(=O)c2c1` [Example 54, 2-(2,3-difluorophenyl)-3-carboxy-6-methyl-(4H)-4-benzopyranone], `O=C(O)c1c(-c2ccccc2Cl)oc2ccccc2c1=O` [Example 11, 2-(2-chlorophenyl)-3-carboxy-(4H)-4-benzopyranone] is higher in melting point: 120 to 122 °C for the first, 133 to 135 °C for the second.

For `COc1ccc(-c2oc3ccccc3c(=O)c2C(=O)O)cc1OC` [Example 8, 2-(3,4-dimethoxyphenyl)-3-carboxy-(4H)-4-benzopyranone], the melting point was 237 to 238 °C.

From patent US11504349B2, “Composition for preventing or treating TNF-related diseases, containing novel derivative as active ingredient, and method for inhibiting TNF activity by using same” (ILAB, priority 2017, dated 2022)
